Laboratory results from paper doi:10.1101/2021.12.13.472350v1, “An amphipathic and cationic antimicrobial peptide kills colistin resistant Gram-negative pathogens in vivo” (bioRxiv, 2021).
Values after ≈ are worked out from the molar mass of the structure shown. Marks after values point to notes of the source that are not given here. Peptide text beside a SMILES is read from it.

Key:
[1] = system: Eschericia coli ATCC 25922; type: cell-based
E. coli ATCC 25922 [2] = experiment: Time kill experiments; type: cell-based; conditions: detection limit 50 CFU
E. coli ATCC 25922 [3] = experiment: In vivo sepsis/peritonitis mouse infection model; conditions: NMRI mice infected IP; 10 mg/ml colistin as printed, IP at 1 and 3 h post infection
E. coli ESBL20150072 = experiment: In vivo sepsis/peritonitis mouse infection model; conditions: NMRI mice infected IP
Description: Outbred female NMRI mice (NMRI; weight 26–30 g; Taconic, Denmark) were used throughout the study, as previously described ([69], [70]). […] Colistin is recommended at a dose of 5-10 mg/kg, according to the European Medicines Agency (EMA) ([71]). The animals were kept in Macrolon type III cages in groups of six and allowed free access to feed and water. Experiments were initiated after an acclimatization period of 7 days. Inoculation (bacterial infection) was performed by intraperitoneal (IP) injection of 0.5 ml bacterial suspension containing 2×10^7 CFU/ml and 5% (wt/vol) mucin (Sigma-Aldrich). During experiments, groups of eight mice per cage constituting one experimental unit were randomly assigned to treatment (5 mg/kg ChIP and 10 mg/kg ChIP or colistin 10 mg/kg and 24 mg/kg) or no treatment (vehicle). Peptide and colistin was administered as a single bolus injection IP (volume injected 0.2 ml) at 1 hours and again 3. At various times post-infection, ∼200 µL blood from the jaw/cheek was collected in Eppendorf tubes with anti-coagulate (Sarstedt, Nümbrecht, Germany). Peritoneal lavage was performed by injecting 2.0 ml of sterile physiological saline IP. After 1 minute of abdominal massage, the peritoneum was opened and peritoneal lavage fluid (PLF) withdrawn. PLF was immediately placed in an insulated 4 °C cooling box for transportation and kept on ice at 4 °C. The mouse peritonitis model was repeated in duplicates for E. coli ATCC 25922 and A. baumannii ATCC 19606 nad in triplicate for E. coli ESBL20150072, while only a single experiment was carried out on A. baumannii CR17. Animals were sacrificed at various times prior to and following infection. Data from repeated experiments were pooled for analyses. Quantification of bacterial load was performed by spot plating of blood and peritoneal fluid samples from the mice. Dilution series were made in sterile 0.9% NaCl solution, from which 20 μl was spotted on solid lactose agar plates (Bromthymole Blue plates, SSI Diagnostica). Bacterial counts were recorded after overnight incubation at 37 °C in ambient air. The detection limit was 50 CFU/ml. The clinical condition of the mice was determined using a self-developed clinical score. For this score, mouse behavior and appearance were observed and evaluated for the parameters piloerection, attitude, locomotion, breathing and curiosity and awarded a score from 0 to 5 by a blinded observer. 0 = no clinical signs, 1 = slightly ruffled fur, 2 = ruffled fur and strenuous breathing, 3 = 2 plus lethargy, 4 = 3 plus hunched posture and decreased activity, and 5 = moribund. No significant difference in the clinical score between groups was observed 2 and 4 h post treatment. All mice were recorded for score 2.

A. baumannii ATCC 19606 = experiment: In vivo sepsis/peritonitis mouse infection model; conditions: NMRI mice infected IP, 10 mg/kg IP at 1 and 3 h
Eschericia coli ML-35p = conditions: LacI- LacY- LacZ+, MHB-II, 37°C, ~5×10^5 CFU/ml, triplicate
Eschericia coli ST131 = conditions: ST131, ESBL CTX-M-15; MHB-II, 37°C, ~5×10^5 CFU/ml, triplicate
[4] = system: Eschericia coli BW25113 pACYC184; conditions: BW25113 with pACYC184; MHB-II, 37°C, ~5×10^5 CFU/ml, triplicate
[5] = system: Klebsiella pneumoniae ATCC 13883; conditions: ATCC 13883
[6] = system: Klebsiella pneumoniae ATCC 700603; conditions: ATCC 700603, SHV-18, mucoid; MHB-II, 37°C, ~5×10^5 CFU/ml, triplicate
[7] = system: Klebsiella pneumoniae ST512; conditions: ST512, KPC-3, ΔmgrB, L-Ara4N modified, mucoid; MHB-II, 37°C, ~5×10^5 CFU/ml, triplicate
[8] = system: Acinetobacter baumannii ATCC 19606; conditions: ATCC 19606
[9] = system: Acinetobacter baumannii CS01
[10] = system: Acinetobacter baumannii AB167
[11] = system: Acinetobacter baumannii AB176
[12] = system: Acinetobacter baumannii RC64; conditions: RC64, ATCC 19606 pmrB::R134C pmrB::A227V; MHB-II, 37°C, ~5×10^5 CFU/ml, triplicate
[13] = system: Acinetobacter baumannii CR17; conditions: CR17, CS01 pmrA::M12K; MHB-II, 37°C, ~5×10^5 CFU/ml, triplicate
[14] = system: Acinetobacter baumannii AB167R; conditions: AB167 lpxC::ISAba1, LPS deficient, MHB-II, 37°C, ~5×10^5 CFU/ml, triplicate
[15] = system: Acinetobacter baumannii AB176R; conditions: AB176 lpxD::G739T (ΔlpxD), LPS deficient, MHB-II, 37°C, ~5×10^5 CFU/ml, triplicate
[16] = system: Pseudomonas aeruginosa ATCC 27853
[17] = system: Pseudomonas aeruginosa PAO1
[18] = system: Pseudomonas aeruginosa SNRC (PAO1 background); conditions: colistin resistance evolved laboratory isolate, MHB-II, 37°C, ~5×10^5 CFU/ml, triplicate
[19] = system: Pseudomonas aeruginosa Q5

With CC[C@H](C)CCCCC(=O)N[C@@H](CCN)C(=O)N[C@H](C(=O)N[C@@H](CCN)C(=O)N[C@H]1CCNC(=O)[C@H]([C@@H](C)O)NC(=O)[C@H](CCN)NC(=O)[C@H](CCN)NC(=O)[C@H](CC(C)C)NC(=O)[C@@H](CC(C)C)NC(=O)[C@H](CCN)NC1=O)[C@@H](C)O [Colistin, colistin] (HELM PEPTIDE1{[CC[C@H](C)CCCCC(=O)[*:2]].[Dab].T.[Dab].[Dab].[Dab].[dL].L.[Dab].[Dab].T}$PEPTIDE1,PEPTIDE1,5:R3-11:R2$$$V2.0; N-terminus assumed; bridges inferred) the MIC [1] was 0.125-0.25* μg/ml, the “cell viability after treatment” value (E. coli ATCC 25922 [2]; 1xMIC) was “reduction in CFU to the detection limit” and the “cell viability after treatment” value (E. coli ATCC 25922 [2]; 3xMIC, over the first 5 hours) was “reduction in CFU to the detection limit”. For the same molecule, the “peritoneal bacterial titers compared with ChIP 5 mg/kg (2 logs reduction, 1-5×10^5 CFU/ml)” value (E. coli ATCC 25922 [3]) was “similar”, the “effect on peritoneal titers” value (E. coli ESBL20150072; 24 mg/kg IP at 1 and 3 h, mcr-1 genotype) was “no effect” and the “bacterial blood stream titers” value (E. coli ESBL20150072; colistin 24 mg/kg, similar to vehicle control) was ~1×10^6 CFU/ml. The “reduction of peritoneal bacterial titers relative to saline control” value (A. baumannii ATCC 19606; after 5 hours) was 3-4 log, the peritoneal bacterial titers (A. baumannii ATCC 19606; after 5 hours, saline control around 1×10^8 CFU/ml) was 1×10^3-1×10^4 CFU/ml and the bacterial blood titers (A. baumannii ATCC 19606; detection limit 50 CFU/ml) was “reduce CFU/ml to the detection limit”. It also gave an MIC (Eschericia coli MG1655) of 0.25 µg/mL (≈ 0.214 µM), an MIC (Eschericia coli ML-35p) of 0.25 µg/mL (≈ 0.214 µM) and an MIC (Eschericia coli ST131) of 1 µg/mL (≈ 0.855 µM). The MIC (Eschericia coli AMA 817) was 0.125 µg/mL (≈ 0.107 µM), the MIC [4] was 0.5 µg/mL (≈ 0.428 µM) and the MIC [5] was 0.5 µg/mL (≈ 0.428 µM). For the same molecule, the MIC [6] was 2 µg/mL (≈ 1.71 µM), the MIC [7] was 128 µg/mL (≈ 109 µM) and the MIC [8] was 0.5 µg/mL (≈ 0.428 µM). The MIC [9] was 0.5 µg/mL (≈ 0.428 µM), the MIC [10] was 0.5 µg/mL (≈ 0.428 µM) and the MIC [11] was 0.5 µg/mL (≈ 0.428 µM). It also gave an MIC [12] of 64 µg/mL (≈ 54.7 µM), an MIC [13] of over 256 µg/mL and an MIC [14] of over 256 µg/mL. It also gave an MIC [15] of over 256 µg/mL, an MIC [16] of 1 µg/mL (≈ 0.855 µM) and an MIC [17] of 0.5 µg/mL (≈ 0.428 µM). It also gave an MIC [18] of over 256 µg/mL, an MIC [19] of over 256 µg/mL and an MIC (P. aeruginosa B3-CFI) of over 256 µg/mL.
